In US6525001B1, “Substituted pyrimidine and pyridine herbicides” (Mid-American Commercialization Corporation, priority 1997, dated 2003):

Tests used:
Format in all cases: in vivo
Design in all cases: key: 0 is no effect; 10 is complete control
[1] = test system: blackgrass (Alopecurus myosuroides); experiment: Test B pre-/postemergence
Outline: (§1)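 Seeds were planted and sprayed preemergence, while plants at 2 to 18 cm (1- to 4-leaf stage) were sprayed postemergence at the same time, with test chemical in a non-phytotoxic solvent mixture containing surfactant. After twelve to sixteen days in a greenhouse, injury was rated visually against untreated controls on a 0–10 scale.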

[2] = test system: wild oat (Avena fatua); experiment: Test B pre-/postemergence
Outline: as §1

[3] = test system: bamyardgrass (Echinochloa crus-galli); experiment: Test B flood test
Outline: (§2)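 Plants were grown to the 2-leaf stage before treatment with test chemical, then held in a greenhouse for twelve to sixteen days. Injury was visually rated against untreated controls on a 0–10 scale, where 0 is no effect and 10 is complete control.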

[4] = test system: duck salad (Heteranthera limosa); experiment: Test B flood test
Outline: as §2

[5] = test system: rice (Oryza sativa); experiment: Test B flood test
Outline: as §2

[6] = test system: smallflower flatsedge (Cyperus difformis); experiment: Test B flood test
Outline: as §2

[7] = Rate 62 g/ha, Postemergence (flood test)
[8] = Rate 125 g/ha, Postemergence section (flood test species)
[9] = Rate 250 g/ha, Postemergence (flood test species)
[10] = Preemergence, Rate 62 g/ha, scale of 0 to 10
[11] = Rate 500 g/ha, Postemergence (flood test species)

Cc1cnc(-n2cnc(C(F)(F)F)n2)nc1Cn1ccc(C(F)(F)F)n1 [Compound 51]
Plant response rating, Blackgrass ([1]; Rate 62 g/ha, Postemergence): 7
Blackgrass plant response rating ([1]; Rate 62 g/ha, Preemergence): 7
Blackgrass plant response rating ([1]; Rate 125 g/ha, Postemergence): 9
Plant response rating, Blackgrass ([1]; Rate 125 g/ha, Preemergence): 9
Plant response rating, Blackgrass ([1]; Rate 250 g/ha, Postemergence): 9
Plant response rating, Blackgrass ([1]; Rate 250 g/ha, Preemergence): 10
Wild oats plant response rating ([2]; Rate 62 g/ha, Postemergence): 8
Wild oats plant response rating ([2]; Rate 62 g/ha, Preemergence): 4
Wild oats plant response rating ([2]; Rate 125 g/ha, Postemergence): 9
Plant response rating, Wild oats ([2]; Rate 125 g/ha, Preemergence): 7
Plant response rating, Wild oats ([2]; Rate 250 g/ha, Postemergence): 9
Plant response rating, Wild oats ([2]; Rate 250 g/ha, Preemergence): 8
Plant response rating, Barnyardgrass [3, 7]: 5
Barnyardgrass plant response rating [3, 8]: 6
Plant response rating, Barnyardgrass [3, 9]: 7
Plant response rating, Ducksalad [4, 7]: 8
Ducksalad plant response rating [4, 8]: 9
Plant response rating, Ducksalad [4, 9]: 9
Plant response rating, Rice [5, 7]: 3
Rice plant response rating [5, 8]: 5
Plant response rating, Rice [5, 9]: 8
Plant response rating, S. Flatsedge [6, 7]: 9
S. Flatsedge plant response rating [6, 8]: 9
Plant response rating, S. Flatsedge [6, 9]: 9

Cc1cnc(-c2ccc(C(F)(F)F)cc2)nc1Cn1ccc(C#N)n1 [Compound 53]
Plant response rating, Blackgrass [1, 10]: 0
Blackgrass plant response rating ([1]; Rate 62 g/ha, Postemergence): 1
Blackgrass plant response rating ([1]; Rate 125 g/ha, Postemergence): 1
Plant response rating, Blackgrass ([1]; Rate 125 g/ha, Preemergence): 0
Plant response rating, Blackgrass ([1]; Rate 250 g/ha, Postemergence): 1
Plant response rating, Blackgrass ([1]; Rate 250 g/ha, Preemergence): 1
Plant response rating, Blackgrass ([1]; Rate 500 g/ha, Postemergence): 6
Plant response rating, Blackgrass ([1]; Rate 500 g/ha, Preemergence): 2
Plant response rating, Wild oats [2, 10]: 0
Wild oats plant response rating ([2]; Rate 62 g/ha, Postemergence): 1
Wild oats plant response rating ([2]; Rate 125 g/ha, Postemergence): 1
Plant response rating, Wild oats ([2]; Rate 125 g/ha, Preemergence): 0
Plant response rating, Wild oats ([2]; Rate 250 g/ha, Postemergence): 1
Plant response rating, Wild oats ([2]; Rate 250 g/ha, Preemergence): 1
Plant response rating, Wild oats ([2]; Rate 500 g/ha, Postemergence): 2
Plant response rating, Wild oats ([2]; Rate 500 g/ha, Preemergence): 1
Barnyardgrass plant response rating [3, 7]: 1
Barnyardgrass plant response rating [3, 8]: 2
Plant response rating, Barnyardgrass [3, 9]: 2
Plant response rating, Barnyardgrass [3, 11]: 2
Ducksalad plant response rating [4, 7]: 0
Ducksalad plant response rating [4, 8]: 2
Plant response rating, Ducksalad [4, 9]: 5
Plant response rating, Ducksalad [4, 11]: 7
Rice plant response rating [5, 7]: 1
Rice plant response rating [5, 8]: 1
Plant response rating, Rice [5, 9]: 1
Plant response rating, Rice [5, 11]: 2
S. Flatsedge plant response rating [6, 7]: 5
S. Flatsedge plant response rating [6, 8]: 8
Plant response rating, S. Flatsedge [6, 9]: 9
Plant response rating, S. Flatsedge [6, 11]: 9

Cc1cnc(-c2ccc(C(F)(F)F)cc2)nc1Cn1cc(Br)cn1 [Compound 54]
Plant response rating, Blackgrass [1, 10]: 0
Blackgrass plant response rating ([1]; Rate 62 g/ha, Postemergence): 1
Blackgrass plant response rating ([1]; Rate 125 g/ha, Postemergence): 1
Plant response rating, Blackgrass ([1]; Rate 125 g/ha, Preemergence): 1
Plant response rating, Blackgrass ([1]; Rate 250 g/ha, Postemergence): 2
Plant response rating, Blackgrass ([1]; Rate 250 g/ha, Preemergence): 3
Plant response rating, Blackgrass ([1]; Rate 500 g/ha, Postemergence): 3
Plant response rating, Blackgrass ([1]; Rate 500 g/ha, Preemergence): 4
Plant response rating, Wild oats [2, 10]: 0
Wild oats plant response rating ([2]; Rate 62 g/ha, Postemergence): 1
Wild oats plant response rating ([2]; Rate 125 g/ha, Postemergence): 2
Plant response rating, Wild oats ([2]; Rate 125 g/ha, Preemergence): 1
Plant response rating, Wild oats ([2]; Rate 250 g/ha, Postemergence): 3
Plant response rating, Wild oats ([2]; Rate 250 g/ha, Preemergence): 3
Plant response rating, Wild oats ([2]; Rate 500 g/ha, Postemergence): 3
Plant response rating, Wild oats ([2]; Rate 500 g/ha, Preemergence): 4
Barnyardgrass plant response rating [3, 7]: 2
Barnyardgrass plant response rating [3, 8]: 3
Plant response rating, Barnyardgrass [3, 9]: 3
Plant response rating, Barnyardgrass [3, 11]: 4
Ducksalad plant response rating [4, 7]: 0
Ducksalad plant response rating [4, 8]: 0
Plant response rating, Ducksalad [4, 9]: 1
Plant response rating, Ducksalad [4, 11]: 3
Rice plant response rating [5, 7]: 1
Rice plant response rating [5, 8]: 2
Plant response rating, Rice [5, 9]: 3
Plant response rating, Rice [5, 11]: 4
S. Flatsedge plant response rating [6, 7]: 6
S. Flatsedge plant response rating [6, 8]: 8
Plant response rating, S. Flatsedge [6, 9]: 9
Plant response rating, S. Flatsedge [6, 11]: 9
